Assay results published in PubChem BioAssay (NCI).
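Tested at 5 concentrations; 48 h exposure; 96-well plates; endpoints linearly interpolated, else capped at highest concentration. Abbreviation: GI50, concentration required for 50% inhibition of growth. The concentration for full growth arrest is given as TGI.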

Key:
Assay in all cases: inhibition of tumour cell growth, NCI panel, 48 h
OVCAR-3 ovarian = system: OVCAR-3 ovarian
SN12C renal = system: SN12C renal
RXF 393 renal = system: RXF 393 renal
A549 NSCLC = system: A549 NSCLC
HS 578T breast = system: HS 578T breast
HL-60(TB) leukemia = system: HL-60(TB) leukemia
MALME-3M melanoma = system: MALME-3M melanoma
HCT-116 colon = system: HCT-116 colon
HCT-15 colon = system: HCT-15 colon
COLO 205 colon = system: COLO 205 colon
MCF7 breast = system: MCF7 breast
KM12 colon = system: KM12 colon
NCI/ADR-RES ovarian = system: NCI/ADR-RES ovarian
OVCAR-5 ovarian = system: OVCAR-5 ovarian
SK-MEL-28 melanoma = system: SK-MEL-28 melanoma
DU-145 prostate = system: DU-145 prostate
HOP-92 NSCLC = system: HOP-92 NSCLC
SF-268 CNS = system: SF-268 CNS
M14 melanoma = system: M14 melanoma
HCC-2998 colon = system: HCC-2998 colon
MDA-MB-231 breast = system: MDA-MB-231 breast
SNB-75 CNS = system: SNB-75 CNS
NCI-H522 lung = system: NCI-H522 lung
CCRF-CEM leukemia = system: CCRF-CEM leukemia
PC-3 prostate = system: PC-3 prostate
SK-MEL-5 melanoma = system: SK-MEL-5 melanoma
NCI-H23 lung = system: NCI-H23 lung
UACC-257 melanoma = system: UACC-257 melanoma
BT-549 breast = system: BT-549 breast
SK-MEL-2 melanoma = system: SK-MEL-2 melanoma
HOP-62 NSCLC = system: HOP-62 NSCLC
MDA-MB-435 = system: MDA-MB-435
LOX IMVI melanoma = system: LOX IMVI melanoma
TK-10 renal = system: TK-10 renal
SR leukemia = system: SR leukemia
UO-31 renal = system: UO-31 renal
MOLT-4 leukemia = system: MOLT-4 leukemia
CAKI-1 renal = system: CAKI-1 renal
SF-295 CNS = system: SF-295 CNS
ACHN renal = system: ACHN renal
OVCAR-8 ovarian = system: OVCAR-8 ovarian
IGROV1 ovarian = system: IGROV1 ovarian
SNB-19 CNS = system: SNB-19 CNS
NCI-H226 lung = system: NCI-H226 lung
OVCAR-4 ovarian = system: OVCAR-4 ovarian
NCI-H460 lung = system: NCI-H460 lung
HT29 colon = system: HT29 colon
A498 renal = system: A498 renal
786-0 renal = system: 786-0 renal
SW-620 colon = system: SW-620 colon
EKVX NSCLC = system: EKVX NSCLC
K-562 leukemia = system: K-562 leukemia
SF-539 CNS = system: SF-539 CNS
RPMI-8226 leukemia = system: RPMI-8226 leukemia
SK-OV-3 ovarian = system: SK-OV-3 ovarian
UACC-62 melanoma = system: UACC-62 melanoma
U251 CNS = system: U251 CNS

COC1=CC(c2ccc[nH]2)=N/C1=C\c1[nH]c(C)c(C(=O)CCCCCCCCC(=O)O[C@H]2CC[C@H]3C4CCc5cc(O)ccc5C4CC[C@]23C)c1C (some centres undefined)
GI50 (OVCAR-3 ovarian): 0.493 µM
TGI (OVCAR-3 ovarian): 15 µM
GI50 (SN12C renal): 0.6 µM
TGI (SN12C renal): > 50 µM
GI50 (RXF 393 renal): 1.21 µM
TGI (RXF 393 renal): 24.5 µM
GI50 (A549 NSCLC): 1.11 µM
TGI (A549 NSCLC): 8.88 µM
GI50 (HS 578T breast): 0.411 µM
TGI (HS 578T breast): > 33.9 µM
GI50 (HL-60(TB) leukemia): 0.289 µM
TGI (HL-60(TB) leukemia): > 50 µM
GI50 (MALME-3M melanoma): 2.49 µM
TGI (MALME-3M melanoma): > 36.3 µM
GI50 (HCT-116 colon): 0.159 µM
TGI (HCT-116 colon): > 22.1 µM
GI50 (HCT-15 colon): 1.55 µM
TGI (HCT-15 colon): > 50 µM
GI50 (COLO 205 colon): 0.332 µM
TGI (COLO 205 colon): > 50 µM
GI50 (MCF7 breast): 0.37 µM
TGI (MCF7 breast): > 50 µM
GI50 (KM12 colon): 0.379 µM
TGI (KM12 colon): > 50 µM
GI50 (NCI/ADR-RES ovarian): 25.9 µM
TGI (NCI/ADR-RES ovarian): > 50 µM
GI50 (OVCAR-5 ovarian): 1.24 µM
TGI (OVCAR-5 ovarian): > 50 µM
GI50 (SK-MEL-28 melanoma): 0.841 µM
TGI (SK-MEL-28 melanoma): > 50 µM
GI50 (DU-145 prostate): 0.387 µM
TGI (DU-145 prostate): > 50 µM
GI50 (HOP-92 NSCLC): 0.167 µM
TGI (HOP-92 NSCLC): 1.43 µM
GI50 (SF-268 CNS): 0.429 µM
TGI (SF-268 CNS): > 50 µM
GI50 (M14 melanoma): 0.235 µM
TGI (M14 melanoma): 2.23 µM
GI50 (HCC-2998 colon): 0.623 µM
TGI (HCC-2998 colon): > 50 µM
GI50 (MDA-MB-231 breast): 0.148 µM
TGI (MDA-MB-231 breast): 7.06 µM
GI50 (SNB-75 CNS): 0.29 µM
TGI (SNB-75 CNS): 2.79 µM
GI50 (NCI-H522 lung): 0.277 µM
TGI (NCI-H522 lung): > 33.9 µM
GI50 (CCRF-CEM leukemia): 0.117 µM
TGI (CCRF-CEM leukemia): > 50 µM
GI50 (PC-3 prostate): 0.327 µM
TGI (PC-3 prostate): > 50 µM
GI50 (SK-MEL-5 melanoma): 0.139 µM
TGI (SK-MEL-5 melanoma): 0.456 µM
GI50 (NCI-H23 lung): 1.85 µM
TGI (NCI-H23 lung): > 50 µM
GI50 (UACC-257 melanoma): 3.62 µM
TGI (UACC-257 melanoma): > 50 µM
GI50 (BT-549 breast): 0.618 µM
TGI (BT-549 breast): > 45.1 µM
GI50 (SK-MEL-2 melanoma): 0.247 µM
TGI (SK-MEL-2 melanoma): 1.95 µM
GI50 (HOP-62 NSCLC): 0.483 µM
TGI (HOP-62 NSCLC): 10.2 µM
GI50 (MDA-MB-435): 0.272 µM
TGI (MDA-MB-435): > 24.2 µM
GI50 (LOX IMVI melanoma): 0.0764 µM
TGI (LOX IMVI melanoma): 0.267 µM
GI50 (TK-10 renal): 0.861 µM
TGI (TK-10 renal): > 50 µM
GI50 (SR leukemia): 0.209 µM
TGI (SR leukemia): > 20.2 µM
GI50 (UO-31 renal): 1.18 µM
TGI (UO-31 renal): 5.3 µM
GI50 (MOLT-4 leukemia): 0.428 µM
TGI (MOLT-4 leukemia): > 50 µM
GI50 (CAKI-1 renal): 1.1 µM
TGI (CAKI-1 renal): > 28.4 µM
GI50 (SF-295 CNS): 1.09 µM
TGI (SF-295 CNS): > 43.8 µM
GI50 (ACHN renal): 1.16 µM
TGI (ACHN renal): > 50 µM
GI50 (OVCAR-8 ovarian): 0.378 µM
TGI (OVCAR-8 ovarian): > 50 µM
GI50 (IGROV1 ovarian): 1.06 µM
TGI (IGROV1 ovarian): > 50 µM
GI50 (SNB-19 CNS): 3.16 µM
TGI (SNB-19 CNS): > 50 µM
GI50 (NCI-H226 lung): 2.99 µM
TGI (NCI-H226 lung): > 11.4 µM
GI50 (OVCAR-4 ovarian): 0.343 µM
TGI (OVCAR-4 ovarian): > 50 µM
GI50 (NCI-H460 lung): 0.536 µM
TGI (NCI-H460 lung): > 50 µM
GI50 (HT29 colon): 0.21 µM
TGI (HT29 colon): > 50 µM
GI50 (A498 renal): 1.28 µM
TGI (A498 renal): > 43.8 µM
GI50 (786-0 renal): 0.787 µM
TGI (786-0 renal): > 12.8 µM
GI50 (SW-620 colon): 0.197 µM
TGI (SW-620 colon): > 50 µM
GI50 (EKVX NSCLC): 0.461 µM
TGI (EKVX NSCLC): > 50 µM
GI50 (K-562 leukemia): 0.267 µM
TGI (K-562 leukemia): > 50 µM
GI50 (SF-539 CNS): 0.46 µM
TGI (SF-539 CNS): > 50 µM
GI50 (RPMI-8226 leukemia): 1.63 µM
TGI (RPMI-8226 leukemia): > 50 µM
GI50 (SK-OV-3 ovarian): 5.02 µM
TGI (SK-OV-3 ovarian): > 50 µM
GI50 (UACC-62 melanoma): 0.182 µM
TGI (UACC-62 melanoma): 1.09 µM
GI50 (U251 CNS): 0.331 µM
TGI (U251 CNS): > 50 µM
